The values that follow come from patent publication US8410112B2, “Compounds useful as inhibitors of ATR kinase” (Vertex Pharmaceuticals Incorporated, priority 2008, dated 2013).

The target in the assay is T1, full-length ATR (Homo sapiens, UniProt Q13535).
T1 construct: in the presence of 5 nM full-length ATR
T1 sequence (Q13535 whole entry): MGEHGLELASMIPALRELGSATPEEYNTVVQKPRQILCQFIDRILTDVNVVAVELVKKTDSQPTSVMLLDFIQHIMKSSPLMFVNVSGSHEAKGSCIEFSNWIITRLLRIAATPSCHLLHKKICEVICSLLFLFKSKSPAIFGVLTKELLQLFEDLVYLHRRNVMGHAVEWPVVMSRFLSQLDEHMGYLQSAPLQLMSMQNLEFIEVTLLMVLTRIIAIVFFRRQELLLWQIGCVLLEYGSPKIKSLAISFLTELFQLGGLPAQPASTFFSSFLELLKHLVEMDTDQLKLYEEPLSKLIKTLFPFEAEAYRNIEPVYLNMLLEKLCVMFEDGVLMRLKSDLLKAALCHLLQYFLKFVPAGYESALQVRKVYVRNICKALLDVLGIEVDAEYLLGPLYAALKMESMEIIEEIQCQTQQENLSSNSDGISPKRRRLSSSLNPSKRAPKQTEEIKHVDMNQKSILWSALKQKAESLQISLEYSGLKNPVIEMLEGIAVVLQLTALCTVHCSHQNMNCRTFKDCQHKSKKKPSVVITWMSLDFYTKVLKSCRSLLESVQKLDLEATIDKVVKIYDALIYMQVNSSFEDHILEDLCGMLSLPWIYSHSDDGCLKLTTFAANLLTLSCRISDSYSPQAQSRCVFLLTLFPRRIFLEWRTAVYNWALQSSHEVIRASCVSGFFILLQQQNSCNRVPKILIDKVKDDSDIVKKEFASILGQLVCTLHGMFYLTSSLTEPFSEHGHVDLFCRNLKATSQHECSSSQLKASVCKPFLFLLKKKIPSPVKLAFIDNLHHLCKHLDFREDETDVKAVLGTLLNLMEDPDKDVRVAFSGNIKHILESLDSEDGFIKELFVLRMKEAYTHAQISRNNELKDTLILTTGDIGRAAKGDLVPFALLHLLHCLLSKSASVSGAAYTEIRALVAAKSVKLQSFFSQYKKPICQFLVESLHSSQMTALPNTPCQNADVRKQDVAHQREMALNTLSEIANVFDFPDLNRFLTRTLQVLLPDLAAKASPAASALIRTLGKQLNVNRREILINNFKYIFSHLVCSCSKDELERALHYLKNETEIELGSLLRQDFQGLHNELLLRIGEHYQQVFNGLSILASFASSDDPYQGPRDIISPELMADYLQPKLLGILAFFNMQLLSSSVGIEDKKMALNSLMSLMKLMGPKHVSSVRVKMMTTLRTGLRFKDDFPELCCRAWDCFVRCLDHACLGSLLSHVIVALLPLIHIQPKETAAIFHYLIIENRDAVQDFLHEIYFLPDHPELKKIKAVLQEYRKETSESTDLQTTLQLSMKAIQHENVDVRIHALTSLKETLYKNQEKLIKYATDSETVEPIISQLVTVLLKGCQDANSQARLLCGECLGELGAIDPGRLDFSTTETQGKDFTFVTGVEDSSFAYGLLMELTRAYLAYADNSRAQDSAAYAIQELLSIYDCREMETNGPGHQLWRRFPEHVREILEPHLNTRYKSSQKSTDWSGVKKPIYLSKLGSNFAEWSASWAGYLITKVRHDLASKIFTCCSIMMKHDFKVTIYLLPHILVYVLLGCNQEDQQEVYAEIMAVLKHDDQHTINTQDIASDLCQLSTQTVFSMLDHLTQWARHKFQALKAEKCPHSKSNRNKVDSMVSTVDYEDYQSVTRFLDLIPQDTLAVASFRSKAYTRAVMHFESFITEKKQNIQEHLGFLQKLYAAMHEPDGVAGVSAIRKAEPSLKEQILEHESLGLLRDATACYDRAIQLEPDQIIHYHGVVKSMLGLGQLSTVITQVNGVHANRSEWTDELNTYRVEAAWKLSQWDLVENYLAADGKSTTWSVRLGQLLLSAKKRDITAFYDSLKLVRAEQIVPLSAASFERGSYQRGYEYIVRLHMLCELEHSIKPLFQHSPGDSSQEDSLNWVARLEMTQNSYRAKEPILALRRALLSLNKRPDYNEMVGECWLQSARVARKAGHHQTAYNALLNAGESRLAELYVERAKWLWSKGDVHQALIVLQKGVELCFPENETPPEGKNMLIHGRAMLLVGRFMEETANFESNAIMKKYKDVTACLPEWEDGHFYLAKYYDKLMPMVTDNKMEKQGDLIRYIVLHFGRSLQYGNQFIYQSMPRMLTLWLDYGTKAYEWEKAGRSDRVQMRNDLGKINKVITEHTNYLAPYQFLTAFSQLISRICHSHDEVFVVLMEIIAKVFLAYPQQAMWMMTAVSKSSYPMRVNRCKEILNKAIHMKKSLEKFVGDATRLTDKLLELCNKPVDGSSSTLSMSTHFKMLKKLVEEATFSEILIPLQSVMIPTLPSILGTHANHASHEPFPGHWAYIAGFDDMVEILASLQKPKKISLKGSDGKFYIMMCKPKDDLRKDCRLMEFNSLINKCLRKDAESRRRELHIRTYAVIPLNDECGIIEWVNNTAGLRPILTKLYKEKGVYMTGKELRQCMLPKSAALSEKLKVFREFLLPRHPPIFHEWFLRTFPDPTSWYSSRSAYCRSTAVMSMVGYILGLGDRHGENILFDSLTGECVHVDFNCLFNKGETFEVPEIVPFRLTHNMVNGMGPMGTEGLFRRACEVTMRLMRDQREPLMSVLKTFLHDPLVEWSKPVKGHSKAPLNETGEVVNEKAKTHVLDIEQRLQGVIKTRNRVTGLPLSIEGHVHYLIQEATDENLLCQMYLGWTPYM
Nature of the assay: ATR Inhibition Assay (radioactive-phosphate incorporation). The assay is classed as biochemical. Particulars: Ki(app); 5 nM full-length ATR, 10 μM ATP, 800 μM target peptide, 25° C. The method, then: Test compounds were screened for their ability to inhibit ATR kinase using a radioactive-phosphate incorporation assay. Assays were carried out in a mixture of 50 mM
Tris/HCl (pH 7.5), 10 mM MgCl2 and 1 mM DTT. Final substrate concentrations were 10 μM [γ-33P]ATP (3 mCi 33 P ATP/mmol ATP, Perkin Elmer) and 800 μM target peptide ([…]). Assays were carried out at 25° C. in the presence of 5 nM full-length ATR. An assay stock buffer solution was prepared containing all of the reagents listed above, with the exception of ATP and the test compound of interest. […] The plate was pre-incubated for 10 minutes at 25° C. and the reaction initiated by addition of 15 μL [γ-33P]ATP (final concentration 10 μM).
The reaction was stopped after […] by the addition of 30 μL 0.1M phosphoric acid containing 2 mM ATP. A multiscreen phosphocellulose filter 96-well plate (Millipore, Cat no. MAPHN0B50) was pretreated with 100 μL 0.2M phosphoric acid prior to the addition of 45 μL of the stopped assay mixture. The plate was washed with 5×200 μL 0.2M phosphoric acid.
After removing mean background values for all of the data points, Ki(app) data were calculated from non-linear regression analysis of the initial rate data using the Prism software package (GraphPad Prism version 3.0cx for Macintosh, GraphPad Software, San Diego Calif., USA).
Consider `CCS(=O)(=O)N1CC=C(c2cnc(N)c(C(=O)Nc3cccnc3OC)n2)CC1` [Compound I-165, 3-amino-6-(1-(ethylsulfonyl)-1,2,3,6-tetrahydropyridin-4-yl)-N-(2-methoxypyridin-3-yl)pyrazine-2-carboxamide], for which the Ki is less than 100 nM. For the compound `Cc1ccc2nc(-c3nc(N4CCN(c5ccccn5)CC4)cnc3N)[nH]c2c1` [Compound I-64, 3-(6-methyl-1H-benzo[d]imidazol-2-yl)-5-(4-(pyridin-2-yl)piperazin-1-yl)pyrazin-2-amine], the Ki is 1000 to 10000 nM. As for `CNCc1ccc(-c2nnc(-c3nc(N4CCC[C@@H]4C)cnc3N)o2)cc1` [Compound I-361, 3-[5-[4-(Methylaminomethyl)phenyl]-1,3,4-oxadiazol-2-yl]-5-[(2S)-2-methylpyrrolidin-1-yl]pyrazin-2-amine], the Ki is 100 to 1000 nM.

Consider `CN(C)C1CCN(C(=O)N2CC=C(c3cnc(N)c(-c4nc5ccccc5[nH]4)n3)CC2)CC1` [Compound I-173, (4-(5-amino-6-(1H-benzo[d]imidazol-2-yl)pyrazin-2-yl)-5,6-dihydropyridin-1(2H)-yl)(4-(dimethylamino)piperidin-1-yl)methanone], for which the Ki fell in the range of 100 to 1000 nM. For `COCCOCC(=O)N1CCN(c2cnc(N)c(C(=O)Nc3ccccn3)n2)CC1` [Compound I-151, 3-amino-6-(4-(2-(2-methoxyethoxy)ethanoyl)piperazin-1-yl)-N-(pyridin-2-yl)pyrazine-2-carboxamide], the Ki was 1000 to 10000 nM. With `CNCc1ccc(-c2nnc(-c3nc(C4=CCC(C)CC4)cnc3N)o2)cc1` (centres unmarked) [Compound I-336, 3-(5-(4-((Methylamino)methyl)phenyl)-1,3,4-oxadiazol-2-yl)-5-(4-methylcyclohex-1-enyl)pyrazin-2-amine], the Ki is 100 to 1000 nM. Next, `Nc1ncc(-n2ccc(=O)cc2)nc1-c1nnc(-c2ccccc2)o1` [Compound I-286, 1-[5-amino-6-(5-phenyl-1,3,4-oxadiazol-2-yl)pyrazin-2-yl]pyridin-4-one]: less than 100 nM; `Nc1ncc(N2CCN(C(=O)c3c(F)cccc3F)CC2)nc1C(=O)Nc1ccccn1` [Compound I-149, 3-amino-6-(4-(2,6-difluorophenylcarbonyl)piperazin-1-yl)-N-(pyridin-2-yl)pyrazine-2-carboxamide]: 100 to 1000 nM.

As for `CC(C)C(=O)N1CCN(c2cnc(N)c(-c3nnc(-c4ccccc4)o3)n2)CC1` [Compound I-190, 1-(4-(5-amino-6-(5-phenyl-1,3,4-oxadiazol-2-yl)pyrazin-2-yl)piperazin-1-yl)-2-methylpropan-1-one], the Ki lay within 100 to 1000 nM. As to `CN(C)S(=O)(=O)N[C@H]1CCN(c2cnc(N)c(-c3nc4ccccc4[nH]3)n2)C1` [Compound I-85, (S)-N-(1-(5-amino-6-(1H-benzo[d]imidazol-2-yl)pyrazin-2-yl)pyrrolidin-3-yl)propane-2-N,N-dimethylsulfamide], the Ki was in the range of 1000 to 10000 nM. Take `CCC(=O)NC1CC=C(c2cnc(N)c(-c3nnc(-c4ccc(CNC)cc4)o3)n2)CC1` (centres unmarked) [Compound I-367, N-(4-(5-Amino-6-(5-(4-((methylamino)methyl)phenyl)-1,3,4-oxadiazol-2-yl)pyrazin-2-yl)cyclohex-3-enyl)propionamide]: the Ki was less than 100 nM. With `Nc1ncc(C2=CCN(C(=O)N3CCCCC3)CC2)nc1-c1nnc(-c2ccccc2)o1` [Compound I-236, (4-(5-amino-6-(5-phenyl-1,3,4-oxadiazol-2-yl)pyrazin-2-yl)-5,6-dihydropyridin-1(2H)-yl)(piperidin-1-yl)methanone] the figure was less than 100 nM. For `CC#CCOC(=O)N1CC=C(c2cnc(N)c(-c3nc4ccccc4[nH]3)n2)CC1` [Compound I-254, but-2-ynyl 4-(5-amino-6-(1H-benzo[d]imidazol-2-yl)pyrazin-2-yl)-5,6-dihydropyridine-1(2H)-carboxylate], the Ki lay within 100 to 1000 nM. As for `CNCc1ccc(-c2nnc(-c3nc(N4CCC(O)C4)cnc3N)o2)cc1` (centres unmarked) [Compound I-371, (35)-1-[5-Amino-6-[5-[4-(methylaminomethyl)phenyl]-1,3,4-oxadiazol-2-yl]pyrazin-2-yl]pyrrolidin-3-ol], the Ki lay in the range of 100 to 1000 nM.

Regarding `Nc1ncc(-n2ccccc2=O)nc1-c1nc2ccccc2[nH]1` [Compound I-310, 1-(5-amino-6-(1H-benzo[d]imidazol-2-yl)pyrazin-2-yl)pyridin-2(1H)-one], the Ki is less than 100 nM.

With `Cc1ccc2nc(-c3nc(N4CCN(c5nccs5)CC4)cnc3N)[nH]c2c1` [Compound I-46, 3-(6-methyl-1H-benzo[d]imidazol-2-yl)-5-(4-(thiazol-2-yl)piperazin-1-yl)pyrazin-2-amine], the Ki was 100 to 1000 nM.

For `CNCc1ccc(-c2nnc(-c3nc(N4CCC5(CCNC5=O)CC4)cnc3N)o2)cc1` [Compound I-360, 8-(5-Amino-6-(5-(4-((methylamino)methyl)phenyl)-1,3,4-oxadiazol-2-yl)pyrazin-2-yl)-2,8-diazaspiro[4.5]decan-1-one], the Ki was 100 to 1000 nM. Next, `NCCC(=O)N1CC=C(c2cnc(N)c(-c3nc4ccccc4[nH]3)n2)CC1` [Compound I-338, 3-amino-1-(4-(5-amino-6-(1H-benzo[d]imidazol-2-yl)pyrazin-2-yl)-5,6-dihydropyridin-1(2H)-yl)propan-1-one]: 100 to 1000 nM; `Nc1ncc(C2=CCN(S(=O)(=O)c3cccnc3)CC2)nc1-c1nnc(-c2ccccc2)o1` [Compound I-222, 3-(5-phenyl-1,3,4-oxadiazol-2-yl)-5-(1-(pyridin-3-ylsulfonyl)-1,2,3,6-tetrahydropyridin-4-yl)pyrazin-2-amine]: less than 100 nM; `CCC(CC)C(=O)N1CC=C(c2cnc(N)c(-c3nnc(-c4ccccc4)o3)n2)CC1` [Compound I-131, 1-(4-(5-amino-6-(5-phenyl-1,3,4-oxadiazol-2-yl)pyrazin-2-yl)-5,6-dihydropyridin-1(2H)-yl)-2-ethylbutan-1-one]: less than 100 nM. For `CN(C)CC(=O)N1CCN(c2cnc(N)c(C(=O)Nc3ccccn3)n2)CC1` [Compound I-150, 3-amino-6-(4-(2-(dimethylamino)ethanoyl)piperazin-1-yl)-N-(pyridin-2-yl)pyrazine-2-carboxamide], the Ki is 1000 to 10000 nM. With `Cn1cnc(S(=O)(=O)N2CCN(c3cnc(N)c(-c4nnc(-c5ccccc5)o4)n3)CC2)c1` [Compound I-87, 5-(4-(1-methyl-1H-imidazol-4-ylsulfonyl)piperazin-1-yl)-3-(5-phenyl-1,3,4-oxadiazol-2-yl)pyrazin-2-amine] the figure was 100 to 1000 nM; with `Nc1ncc(N2CCN(C(=O)C3CCC3)CC2)nc1-c1nnc(-c2ccccc2)o1` [Compound I-189, (4-(5-amino-6-(5-phenyl-1,3,4-oxadiazol-2-yl)pyrazin-2-yl)piperazin-1-yl)(cyclobutyl)methanone], 100 to 1000 nM; with `Nc1ncc(C2=CCN(C(=O)N3CCOCC3)CC2)nc1-c1nc2ccccc2[nH]1` [Compound I-227, (4-(5-amino-6-(1H-benzo[d]imidazol-2-yl)pyrazin-2-yl)-5,6-dihydropyridin-1(2H)-yl)(morpholino)methanone], 100 to 1000 nM.

With `CCC(CC)C(=O)N1CCN(c2cnc(N)c(-c3nc4ccccc4[nH]3)n2)CC1` [Compound I-175, 1-(4-(5-amino-6-(1H-benzo[d]imidazol-2-yl)pyrazin-2-yl)piperazin-1-yl)-2-ethylbutan-1-one], the Ki fell in the range of 1000 to 10000 nM. With `CCC(CC)C(=O)N1CCN(c2cnc(N)c(C(=O)Nc3ccccn3)n2)CC1` [Compound I-212, 3-amino-6-(4-(2-ethylbutanoyl)piperazin-1-yl)-N-(pyridin-2-yl)pyrazine-2-carboxamide], the Ki was 1000 to 10000 nM. As for `CCS(=O)(=O)N1CC=C(c2cnc(N)c(-c3nc4ccccc4[nH]3)n2)CC1` [Compound I-71, 3-(1H-benzo[d]imidazol-2-yl)-5-(1-(ethylsulfonyl)-1,2,3,6-tetrahydropyridin-4-yl)pyrazin-2-amine], the Ki is less than 100 nM.

Consider `CC(C)(C)C(=O)N1CCN(c2cnc(N)c(C(=O)Nc3ccccn3)n2)CC1` [Compound I-209, 3-amino-6-(4-(2,2-dimethylpropanoyl)piperazin-1-yl)-N-(pyridin-2-yl)pyrazine-2-carboxamide], for which the Ki lay within 1000 to 10000 nM.

For `Cc1ccc2nc(-c3nc(N4CCN(c5ccccc5F)CC4)cnc3N)[nH]c2c1` [Compound I-45, 5-(4-(2-fluorophenyl)piperazin-1-yl)-3-(6-methyl-1H-benzo[d]imidazol-2-yl)pyrazin-2-amine], the Ki was 1000 to 10000 nM. Regarding `CCS(=O)(=O)N1CCN(c2cnc(N)c(-c3nc4ccccc4n3C)n2)CC1` [Compound I-15, 5-(4-(ethylsulfonyl)piperazin-1-yl)-3-(1-methyl-1H-benzo[d]imidazol-2-yl)pyrazin-2-amine], the Ki lay in the range of 100 to 1000 nM. With `CN(C)S(=O)(=O)N1CC=C(c2cnc(N)c(-c3nc4ccccc4[nH]3)n2)CC1` [Compound I-89, 4-(5-amino-6-(1H-benzo[d]imidazol-2-yl)pyrazin-2-yl)-N,N-dimethyl-5,6-dihydropyridine-1(2H)-sulfonamide] the figure was less than 100 nM.

For `Cc1ccc2nc(-c3nc(N4CCC(N(C)C)CC4)cnc3N)[nH]c2c1` [Compound I-49, 5-(4-(dimethylamino)piperidin-1-yl)-3-(6-methyl-1H-benzo[d]imidazol-2-yl)pyrazin-2-amine], the Ki is 1000 to 10000 nM.
